Laboratory results published in US6995182B2, “1-sulfonyl pyrrolidine derivatives” (Hoffmann-La Roche Inc., priority 2000, dated 2006).

Biological target: T1, rat mGlu 1a receptor (Rattus norvegicus, UniProt P23385)
T1 construct: expressed in transfected cells; host or cells: EBNA cells (transient transfection)
Assay: [Ca2+]i measurements (FLIPR, Fluo-3 AM) on mGlu 1a transfected EBNA cells
Assay type: cell-based
Settings: rat mGlu 1a receptor transiently transfected into EBNA cells, agonist activity
Description: The pharmacological activity of the compounds was tested using the following method: cDNA encoding rat mGlu 1a receptor was transiently transfected into EBNA cells using a procedure described by E.-J. Schlaeger and K. Christensen (Transient gene expression in mammalian cells grown in serum-free suspension culture; Cytotechnology, 15: 1–13, 1998). [Ca^2+]i measurements were performed on mGlu 1a transfected EBNA cells after incubation of the cells with Fluo-3 AM (0.5 μM final concentration) for 1 hour at 37° C. followed by 4 washes with assay buffer (DMEM supplemented with Hank's salt and 20 mM HEPES. [Ca^2+]i measurements were done using a fluorometric imaging plate reader (FLIPR, Molecular Devices Corporation, La Jolla, Calif., USA). When compounds were evaluated as antagonists they were tested against 10 μM glutamate as agonist.
The inhibition (antagonists) or activation (agonists) curves were fitted with a four parameter logistic equation giving EC50, IC50, and Hill coefficient using the iterative non linear curve fitting software Origin (Microcal Software Inc., Northampton, Mass., USA).

T1 sequence (P23385 19-1199): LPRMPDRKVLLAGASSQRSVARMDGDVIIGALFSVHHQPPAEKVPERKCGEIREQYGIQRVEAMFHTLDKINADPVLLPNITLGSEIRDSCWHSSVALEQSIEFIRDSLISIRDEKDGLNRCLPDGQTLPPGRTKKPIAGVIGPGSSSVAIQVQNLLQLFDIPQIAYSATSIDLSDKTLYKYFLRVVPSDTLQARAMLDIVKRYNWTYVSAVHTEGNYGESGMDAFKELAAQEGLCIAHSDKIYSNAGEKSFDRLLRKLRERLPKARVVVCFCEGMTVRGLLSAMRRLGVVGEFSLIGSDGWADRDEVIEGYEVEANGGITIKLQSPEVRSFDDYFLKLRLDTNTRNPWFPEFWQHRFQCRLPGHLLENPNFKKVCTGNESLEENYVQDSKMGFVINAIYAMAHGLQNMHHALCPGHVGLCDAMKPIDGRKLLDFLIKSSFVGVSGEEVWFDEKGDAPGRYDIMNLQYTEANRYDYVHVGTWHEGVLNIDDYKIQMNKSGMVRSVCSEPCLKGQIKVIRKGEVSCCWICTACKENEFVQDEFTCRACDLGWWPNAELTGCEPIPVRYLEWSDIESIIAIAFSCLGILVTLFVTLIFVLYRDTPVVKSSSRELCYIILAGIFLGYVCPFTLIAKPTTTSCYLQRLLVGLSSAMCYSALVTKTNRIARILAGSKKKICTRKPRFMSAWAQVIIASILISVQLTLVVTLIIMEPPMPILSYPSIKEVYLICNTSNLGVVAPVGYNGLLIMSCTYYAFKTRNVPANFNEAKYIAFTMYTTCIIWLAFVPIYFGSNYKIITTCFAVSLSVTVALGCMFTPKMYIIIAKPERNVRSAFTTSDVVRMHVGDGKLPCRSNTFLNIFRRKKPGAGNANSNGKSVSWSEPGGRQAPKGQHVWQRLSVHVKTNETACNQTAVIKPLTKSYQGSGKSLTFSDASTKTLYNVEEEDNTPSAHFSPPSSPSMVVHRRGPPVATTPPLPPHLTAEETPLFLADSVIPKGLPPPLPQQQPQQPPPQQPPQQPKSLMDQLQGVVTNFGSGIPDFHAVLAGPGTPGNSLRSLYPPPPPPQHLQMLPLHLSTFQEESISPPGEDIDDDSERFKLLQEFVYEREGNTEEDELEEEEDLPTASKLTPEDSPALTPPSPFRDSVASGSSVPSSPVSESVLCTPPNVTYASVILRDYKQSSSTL

| Structure (SMILES) | EC50 |
| --- | --- |
| Cc1ccc(S(=O)(=O)N2[C@@H](C#N)CC[C@H]2c2ccc(F)cc2)cc1 (racemic) [Example 4, (2RS,5SR)-5-(4-Fluoro-phenyl)-1-(toluene-4-sulfonyl)-pyrrolidine-2-carbonitrile] | 4.4 µM |
| Cc1ccc(S(=O)(=O)N2[C@@H](CCl)CC[C@H]2c2ccc(F)cc2)cc1 (racemic) [Example 5, (2RS,5SR)-2-Chloromethyl-5-(4-fluoro-phenyl)-1-(toluene-4-sulfonyl)-pyrrolidine] | 1.4 µM |
| Cc1ccc(S(=O)(=O)N2[C@@H](CNC(=O)C3CC3)CC[C@H]2c2ccc(F)cc2)cc1 (racemic) [Example 16, (2RS,5SR)-Cyclopropanecarboxylic acid [5-(4-fluoro-phenyl)-1-(toluene-4-sulfonyl)-pyrrolidin-2-yl-methyl]-amide] | 0.21 µM |
| Cc1ccc(S(=O)(=O)N2[C@@H](Cc3noc(C)n3)CC[C@H]2c2ccc(F)cc2)cc1 (racemic) [Example 21, (2RS,5SR)-3-[5-(4-Fluoro-phenyl)-1-(toluene-4-sulfonyl)-pyrrolidin-2-yl-methyl]-5-methyl-[1,2,4]oxadiazole] | 0.63 µM |
| Cc1ccc(S(=O)(=O)N2[C@@H](Cc3nnn(C)n3)CC[C@H]2c2ccc(F)cc2)cc1 (racemic) [Example 39, (2RS,5SR)-5-[5-(4-Fluoro-phenyl)-1-(toluene-4-sulfonyl)-pyrrolidin-2-yl-methyl]-2-methyl-2H-tetrazole] | 0.36 µM |
| Cc1ccc(S(=O)(=O)N2[C@H](CCCNS(C)(=O)=O)CC[C@@H]2c2ccc(F)cc2)cc1 (racemic) [Example 77, (2RS,5RS)-N-{3-[5-(4-Fluoro-phenyl)-1-(toluene-4-sulfonyl)-pyrrolidin-2-yl]-propyl}-methanesulfonamide] | 0.16 µM |
| Cc1ccc(S(=O)(=O)N2CCCC2CCCNC(=O)C2CC2)cc1 (racemic) [Example 87, (RS)-Cyclopropanecarboxylic acid {3-[1-(toluene-4-sulfonyl)-pyrrolidin-2-yl]-propyl}-amide] | 0.98 µM |
| Cc1ccc(S(=O)(=O)N2[C@@H](CCn3ncnn3)CC[C@H]2c2ccc(F)cc2)cc1 (racemic) [Example 101, (2RS,5SR)-2-{2-[5-(4-Fluoro-phenyl)-1-(toluene-4-sulfonyl)-pyrrolidin-2-yl]-ethyl}-2H-tetrazole] | 1.47 µM |
| Cc1ccc(S(=O)(=O)N2[C@H](CCCc3nc(C)cc(C)n3)CC[C@@H]2c2ccc(F)cc2)cc1 (racemic) [Example 123, (2RS,5RS)-2-{3-[5-(4-Fluoro-phenyl)-1-(toluene-4-sulfonyl)-pyrrolidin-2-yl]-propyl}-4,6-dimethyl-pyrimidine] | 1.28 µM |
| Cc1ccc(S(=O)(=O)N2[C@@H](c3nnco3)CC[C@H]2c2ccc(F)cc2)cc1 (racemic) [Example 137, (2RS,5SR)-2-[5-(4-Fluoro-phenyl)-1-(toluene-4-sulfonyl)-pyrrolidin-2-yl]-[1,3,4]oxadiazole] | 1.24 µM |
| Cc1ccc(S(=O)(=O)N2[C@H](CCCCn3ncnn3)CC[C@@H]2c2ccc(F)cc2)cc1 (racemic) [Example 143, (2RS,5RS)-2-{4-[5-(4-Fluoro-phenyl)-1-(toluene-4-sulfonyl)-pyrrolidin-2-yl]-butyl}-2H-tetrazole] | 0.35 µM |
| Cc1ccc(S(=O)(=O)N2C(CCCO)CC[C@H]2c2ccc(F)cc2)cc1 (stereo in doubt) [Example 64, (2S,5S)-3-[5-(4-Fluoro-phenyl)-1-(toluene-4-sulfonyl)-pyrrolidin-2-yl]-propan-1-ol] | 0.2 µM |
| Cc1ccc(S(=O)(=O)N2[C@@H](CCCn3ccnc3)CC[C@H]2c2ccc(F)cc2)cc1 [Example 116, (2S,5S)-1-{3-[5-(4-Fluoro-phenyl)-1-(toluene-4-sulfonyl)-pyrrolidin-2-yl]-propyl}-1H-imidazole] | 0.22 µM |

Tested on: not given
Assay: not given
Settings: not given

| Structure (SMILES) | melting point |
| --- | --- |
| Cc1ccc(S(=O)(=O)N2[C@@H](C#N)CC[C@H]2c2ccc(F)cc2)cc1 (racemic) [Example 4, (2RS,5SR)-5-(4-Fluoro-phenyl)-1-(toluene-4-sulfonyl)-pyrrolidine-2-carbonitrile] | 128 °C |
| Cc1ccc(S(=O)(=O)N2[C@@H](CCl)CC[C@H]2c2ccc(F)cc2)cc1 (racemic) [Example 5, (2RS,5SR)-2-Chloromethyl-5-(4-fluoro-phenyl)-1-(toluene-4-sulfonyl)-pyrrolidine] | 130 °C |
| Cc1ccc(S(=O)(=O)N2[C@@H](CNC(=O)C3CC3)CC[C@H]2c2ccc(F)cc2)cc1 (racemic) [Example 16, (2RS,5SR)-Cyclopropanecarboxylic acid [5-(4-fluoro-phenyl)-1-(toluene-4-sulfonyl)-pyrrolidin-2-yl-methyl]-amide] | 154 °C |
| Cc1ccc(S(=O)(=O)N2[C@H](CCCCC#N)CC[C@@H]2c2ccc(F)cc2)cc1 (racemic) [Example 51, (2RS,5RS)-5-[5-(4-Fluoro-phenyl)-1-(toluene-4-sulfonyl)-pyrrolidin-2-yl]-pentanenitrile] | 79 °C |
| Cc1ccc(S(=O)(=O)N2[C@H](CCCCc3nnnn3C)CC[C@@H]2c2ccc(F)cc2)cc1 (racemic) [Example 54, (2RS,5RS)-5-{4-[5-(4-Fluoro-phenyl)-1-(toluene-4-sulfonyl)-pyrrolidin-2-yl]-butyl}-1-methyl-1H-tetrazole] | 120 °C |
| CC(=O)NCC[C@H]1CC[C@@H](c2ccc(F)cc2)N1S(=O)(=O)c1ccc(Cl)cc1 (racemic) [Example 56, (2RS,5SR)-N-{2-[1-(4-Chloro-benzenesulfonyl)-5-(4-fluoro-phenyl)-pyrrolidin-2-yl]-ethyl}-acetamide] | 103 °C |
| O=C(NCC[C@H]1CC[C@@H](c2ccc(F)cc2)N1S(=O)(=O)c1ccc(Cl)cc1)C1CC1 (racemic) [Example 57, (2RS,5SR)-Cyclopropanecarboxylic acid {2-[1-(4-chloro-benzenesulfonyl)-5-(4-fluoro-phenyl)-pyrrolidin-2-yl]-ethyl}-amide] | 80 °C |
| CC(=O)NCCC[C@@H]1CC[C@H](c2ccc(F)cc2)N1S(=O)(=O)c1ccc(Cl)cc1 (racemic) [Example 66, (2RS,5RS)-N-{3-[1-(4-Chloro-benzenesulfonyl)-5-(4-fluoro-phenyl)-pyrrolidin-2-yl]-propyl}-acetamide] | 49 °C |
| Cc1ccc(S(=O)(=O)N2[C@H](CCCc3nc(C)no3)CC[C@@H]2c2ccc(F)cc2)cc1 (racemic) [Example 71, (2RS,5RS)-5-{3-[5-(4-Fluoro-phenyl)-1-(toluene-4-sulfonyl)-pyrrolidin-2-yl]-propyl}-3-methyl-[1,2,4]oxadiazole] | 91 °C |
| Cn1nnc(CC[C@H]2CC[C@@H](c3ccc(F)cc3)N2S(=O)(=O)c2ccc(Cl)cc2)n1 (racemic) [Example 73, (2RS,5SR)-5-{2-[1-(4-Chloro-benzenesulfonyl)-5-(4-fluoro-phenyl)-pyrrolidin-2-yl]-ethyl}-2-methyl-2H-tetrazole] | 122 °C |
| Cc1ccc(S(=O)(=O)N2[C@@H](CCc3nc(C4CC4)no3)CC[C@H]2c2ccc(F)cc2)cc1 (racemic) [Example 75, (2RS,5SR)-3-Cyclopropyl-5-{2-[5-(4-fluoro-phenyl)-1-(toluene-4-sulfonyl)-pyrrolidin-2-yl]-ethyl}-[1,2,4]oxadiazole] | 129 °C |
| Cc1ccc(S(=O)(=O)N2[C@H](CCCNS(C)(=O)=O)CC[C@@H]2c2ccc(F)cc2)cc1 (racemic) [Example 77, (2RS,5RS)-N-{3-[5-(4-Fluoro-phenyl)-1-(toluene-4-sulfonyl)-pyrrolidin-2-yl]-propyl}-methanesulfonamide] | 123 °C |
| Cc1ccc(S(=O)(=O)N2[C@@H](CCc3ncnn3C)CC[C@H]2c2ccc(F)cc2)cc1 (racemic) [Example 78, (2RS,5SR)-5-{2-[5-(4-Fluoro-phenyl)-1-(toluene-4-sulfonyl)-pyrrolidin-2-yl]-ethyl}-1-methyl-1H-[1,2,4]triazole] | 145 °C |
| Cc1ccc(S(=O)(=O)N2[C@@H](Cc3nc(C4CC4)no3)CC[C@H]2c2ccc(F)cc2)cc1 (racemic) [Example 95, (2RS,5SR)-3-Cyclopropyl-5-[5-(4-fluoro-phenyl)-1-(toluene-4-sulfonyl)-pyrrolidin-2-ylmethyl]-[1,2,4]oxadiazole] | 102 °C |
| Cc1ccc(S(=O)(=O)N2[C@@H](Cc3nc(C)no3)CC[C@H]2c2ccc(F)cc2)cc1 (racemic) [Example 96, (2RS,5SR)-5-[5-(4-Fluoro-phenyl)-1-(toluene-4-sulfonyl)-pyrrolidin-2-ylmethyl]-3-methyl-[1,2,4]oxadiazole] | 103 °C |
| Cc1ccc(S(=O)(=O)N2[C@@H](CCO)CC[C@H]2c2ccc(F)cc2)cc1 (racemic) [Example 98, (2RS,5SR)-2-[5-(4-Fluoro-phenyl)-1-(toluene-4-sulfonyl)-pyrrolidin-2-yl]-ethanol] | 129 °C |
| Cc1ccc(S(=O)(=O)N2[C@@H](CCn3cccn3)CC[C@H]2c2ccc(F)cc2)cc1 (racemic) [Example 100, (2RS,5SR)-1-{2-[5-(4-Fluoro-phenyl)-1-(toluene-4-sulfonyl)-pyrrolidin-2-yl]-ethyl}-1H-pyrazole] | 121 °C |
| Cc1ccc(S(=O)(=O)N2[C@@H](CCc3nnco3)CC[C@H]2c2ccc(F)cc2)cc1 (racemic) [Example 127, (2RS,5SR)-2-{2-[5-(4-Fluoro-phenyl)-1-(toluene-4-sulfonyl)-pyrrolidin-2-yl]-ethyl}-[1,3,4]oxadiazole] | 138 °C |
| Cc1ccc(S(=O)(=O)N2C(C3=NOC(C)N3)CCC2c2ccc(F)cc2)cc1 (stereo not shown) [Example 28, 3-[5-(4-Fluoro-phenyl)-1-(toluene-4-sulfonyl)-pyrrolidin-2-yl]-5-methyl-4,5-dihydro-[1,2,4]oxadiazole] | 68 °C |
| Cc1ccc(S(=O)(=O)N2[C@@H](CO)CC[C@H]2c2ccc(F)cc2)cc1 [Example 58, (2R,5S)-[5-(4-Fluoro-phenyl)-1-(toluene-4-sulfonyl)-pyrrolidin-2-yl]-methanol] | 140 °C |
| Cc1ccc(S(=O)(=O)N2[C@@H](CCCO)CC[C@H]2c2ccc(F)cc2)cc1 [Example 64, (2S,5S)-3-[5-(4-Fluoro-phenyl)-1-(toluene-4-sulfonyl)-pyrrolidin-2-yl]-propan-1-ol] | 96 °C |
